The results in this text go back to ChEMBL document CHEMBL4414627, “Ealamines A-H, a Series of Naphthylisoquinolines with the Rare 7,8'-Coupling Site, from the Congolese Liana Ancistrocladus ealaensis, Targeting Pancreatic Cancer Cells” (J Nat Prod, 2019).

Active and inactive are the calls of the source. The rule behind the calls is not given here.

Data set [1] concerns PANC-1. The experiment in a line: Cytotoxicity against nutrient deprived human PANC1 cells assessed as induction of cell killing incubated for 24 hrs by WST-8 assay. It is filed as functional.
In data set [2] the test system is PANC-1. The experiment in a line: Cytotoxicity against DMEM cultured human PANC1 cells assessed as reduction in cell viability at PC50 incubated for 24 hrs by WST-8 assay. It is filed as cell-based. The settings on record: panc-1, 24 h.
In data set [3] the test system is Plasmodium falciparum. The experiment in a line: Antiprotozoal activity against chloroquine and pyrimethamine-resistant erythrocytic stage of Plasmodium falciparum K1 assessed as reduction in [3H]hypoxanthine incorporation preincubated for 48 hrs followed by [3H]hypoxanthine addition and measured after 24 hrs by liquid scintillation counting method. It is filed as functional, organism-based.

For data set [4], the system named is Plasmodium falciparum. The experiment in a line: Antiprotozoal activity against chloroquine-sensitive Plasmodium falciparum NF54. It is filed as functional, organism-based.
Data set [5] concerns Trypanosoma cruzi. The experiment in a line: Antiprotozoal activity against Trypanosoma cruzi Tulahuen C4 amastigotes infected in rat L6 cells incubated for 96 hrs by beta-galactosidase reporter gene assay. It is filed as functional, organism-based. (In a reporter assay the amount or activity of a reporter protein is the signal.)
In data set [6] the test system is Trypanosoma brucei rhodesiense. The experiment in a line: Antiprotozoal activity against Trypanosoma brucei rhodesiense STIB900 trypomastigotes incubated for 72 hrs by Alamar blue staining-based fluorometric analysis. It is filed as functional, organism-based.
The subject of data set [7] is Leishmania donovani. The experiment in a line: Antiprotozoal activity against Leishmania donovani MHOM-ET-67/L82 axenic amastigotes incubated for 72 hrs by Alamar blue staining-based fluorometric analysis. It is filed as functional, organism-based. (The colour change of resazurin is a common sign of viable cells or microbes.)
Data set [8] has as its system L6. The experiment in a line: Cytotoxicity against rat L6 cells assessed as reduction in cell viability incubated for 72 hrs by Alamar blue staining-based fluorometric analysis.
Data set [9] can be described thus: Selectivity index, ratio of IC50 for rat L6 cells to IC50 for chloroquine and pyrimethamine-resistant erythrocytic stage of Plasmodium falciparum K1. It is filed as toxicity. The settings on record: for selectivity ratio: L6 cells, read-out: Ratio IC50.
The nature of data set [10]: Selectivity index, ratio of IC50 for rat L6 cells to IC50 for chloroquine-sensitive Plasmodium falciparum NF54. It is filed as toxicity. The conditions noted are these: read-out: Ratio IC50.
Data set [11] deals with PANC-1. The experiment in a line: Induction of cell morphological changes in nutrient deprived human PANC1 cells incubated for 24 hrs by acridine orange/ethidium bromide double staining-based fluorescence/phase contrast mode based EVOS FL digital microscopic analysis. It is filed as functional.
Data set [12] has as its system PANC-1. The experiment in a line: Induction of cell morphological changes in human PANC1 cells assessed as loss of membrane integrity at 12.5 uM incubated for 24 hrs in nutrient deprived medium by acridine orange/ethidium bromide double staining-based fluorescence/phase contrast mode based EVOS FL digital microscopic analysis. It is filed as functional.
The subject of data set [13] is PANC-1. The experiment in a line: Induction of cell death in nutrient deprived human PANC1 cells at 12.5 uM incubated for 24 hrs by acridine orange/ethidium bromide double staining-based fluorescence/phase contrast mode based EVOS FL digital microscopic analysis. It is filed as functional.
Data set [14] concerns PANC-1. The experiment in a line: Induction of cell morphological changes in nutrient deprived human PANC1 cells assessed as cell swelling at 25 uM incubated for 24 hrs by acridine orange/ethidium bromide double staining-based fluorescence/phase contrast mode based EVOS FL digital microscopic analysis. It is filed as functional.
For data set [15], the system named is PANC-1. The experiment in a line: Induction of cell morphological changes in nutrient deprived human PANC1 cells assessed as cell rounding at 25 uM incubated for 24 hrs by acridine orange/ethidium bromide double staining-based fluorescence/phase contrast mode based EVOS FL digital microscopic analysis. It is filed as functional.
The mark [16] stands for this setting: Trypanosoma cruzi, Tulahuen C4, L6, 96 h.
[17] abbreviates: Trypanosoma brucei, STIB900, 72 h.
Where [18] appears, read: Leishmania donovani, MHOM-ET-67/L82, 72 h.

Consider `COc1cc(C[C@H]2C(=O)OC[C@@H]2Cc2ccc(OC)c(OC)c2)ccc1O` [ARCTIGENIN], for which the PC50 in [1] was determined as 0.8 µM. The Activity entry in data set [2] was “Non-Toxic”.
The IC50 is the concentration needed to halve the response being measured. Consider `COc1cc2c(c(O)c1-c1ccc(OC)c3c(OC)cc(C)cc13)[C@@H](C)N[C@H](C)C2`, for which the concentration for half-maximal inhibition (IC50) is 8.2 µM in data set [3] (Plasmodium falciparum, K1); 22.2 µM in data set [4] (Plasmodium falciparum, NF54); 225 µM in [5] (setting [16]); 106 µM in data set [6] (setting [17]); more than 250 µM in data set [7] (setting [18]); more than 250 µM in [8] (Rattus norvegicus, L6, 72 h). Besides, in data set [9], the selectivity ratio was more than 30. In addition, the Activity entry is “Dose-dependent effect” in [1] and “Non-Toxic” in data set [2]. In addition, the PC50 in data set [1] amounted to 60.4 µM.
Consider `COc1c(-c2ccc(O)c3c(OC)cc(C)cc23)c(O)cc2c1[C@H](C)N[C@H](C)C2`, for which the Activity result in data set [1] was “Dose-dependent effect”; in data set [2], “Non-Toxic”. In addition, in data set [1], the PC50 was 33.4 µM.
Consider `COc1c(-c2ccc(OC)c3c(OC)cc(C)cc23)c(O)cc2c1[C@@H](C)N[C@H](C)C2` [listing 1 of 2 here], for which the IC50 came out at 1.4 µM in data set [3] (Plasmodium falciparum, K1); 4.9 µM in data set [4] (Plasmodium falciparum, NF54); 123 µM in [5] (setting [16]); 7.8 µM in [6] (setting [17]); 53.4 µM in [7]; 20.9 µM in [8] (l6). For the same compound, in data set [9], the “Ratio IC50” value was found to be 15. The PC50 in data set [1] is 30.6 µM.
With `O=C(Cn1ccnc1[N+](=O)[O-])NCc1ccccc1` [BENZNIDAZOLE], in data set [5] (setting [16]), the midpoint of inhibition, the IC50, lay at 3.6 µM.
Turning to `COc1cc(O)c(-c2cc(-c3cc(-c4c(O)cc5c(c4OC)[C@H](C)N[C@H](C)C5)c4cc(C)cc(OC)c4c3O)c(O)c3c(OC)cc(C)cc23)c2c1[C@H](C)N[C@H](C)C2`, the half-maximal inhibitory concentration (IC50) is 0.0063 µM in data set [3] (Plasmodium falciparum, K1) and 6 µM in data set [8] (Rattus norvegicus, L6, 72 h). Moreover, in [9], the selectivity ratio was determined as 1000.
Regarding `COc1c(-c2ccc(OC)c3c(OC)cc(C)cc23)c(O)cc2c1[C@@H](C)N[C@H](C)C2` [listing 2 of 2 here], in data set [1], the Activity result was “Dose-dependent effect”.
With `COc1c(-c2ccc(OC)c3c(OC)cc(C)cc23)c(O)cc2c1[C@@H](C)N[C@H](C)C2` (single isomer, unassigned; atropisomer) [listing 1 of 2 here], the half-inhibitory concentration (IC50) in data set [3] was 1.6 µM; in data set [4], 6.3 µM; in data set [5], 73.4 µM; in data set [6], 9.8 µM; in [7], 170 µM; in data set [8] (l6), 9.1 µM. In addition, the “Ratio IC50” value in data set [9] is listed as 5.6. In addition, the PC50 in [1] was 12.5 µM. The Activity result in data set [2] was “Non-Toxic”.
In the case of `COc1c(-c2ccc(O)c3c(OC)cc(C)cc23)c(O)cc2c1[C@@H](C)N[C@H](C)C2`, the half-inhibitory concentration (IC50) is 0.84 µM in [4] (Plasmodium falciparum, NF54); 102 µM in data set [5] (setting [16]); 9.4 µM in [6] (setting [17]); more than 250 µM in data set [7] (setting [18]); 47.7 µM in data set [8] (Rattus norvegicus, L6, 72 h). Also, the selectivity ratio in [10] came out at 56.8. The Activity entry was “Dose-dependent effect” in data set [1]; “Dose-dependent effect” in data set [11]; 100% in data set [14]; 100% in [15]; “Non-Toxic” in data set [2]. Further, in data set [1], the PC50 was determined as 9.9 µM. Further, the result in [12] and in data set [13] was Active.
Take `COc1c2c(cc(O)c1-c1ccc(O)c3c(OC)cc(C)cc13)C[C@@H](C)N=C2C`: in data set [1], the Activity entry was “Dose-dependent effect” and the PC50 came to 37.8 µM. In data set [2], the Activity result is on record as “Non-Toxic”.
For the compound `COc1c(-c2ccc(OC)c3c(OC)cc(C)cc23)c(O)cc2c1[C@@H](C)N[C@H](C)C2` (single isomer, unassigned; atropisomer) [listing 2 of 2 here], the Activity result in [1] is “Dose-dependent effect”.
